Laboratory results published in patent US20260055061A1, “HALOPHTHALIMIDE COMPOUNDS AND METHODS OF USE AGAINST TBI, INFLAMMATORY DISORDER, AUTOIMMUNE DISORDER, NEURODEGENERATIVE DISEASE OR VIRAL INFECTION” (The United States of America, as represented by the …, priority 2022, published 2026).

Assays:
[1] = tested on: LPS-induced nitrite in RAW 264.7 cells; experiment: LPS-induced nitrite production in RAW 264.7 cells (Griess reagent / fluorometric kit); assay type: cell-based, mouse; details: for nitrite level, % of vehicle control: LPS-challenged RAW 264.7 cells, percentage of vehicle control value (control = 100%), mean ± S.E.M., n = 3; for Nitrite, % Change versus Control (± s.e.m.): 10 uM, LPS-activated RAW 264.7 cells; for nitrite levels (in words): six-compound pomalidomide grouping, RAW cell assay, FIGS. 12-13
Method: Nitrite ion detection in drug treated […] cell culture media: To measure the levels of nitrite ion NO2—) the Griess Reagent System (Promega, Madison, WI, Cat #G2930) was utilized. The protocol followed was that recommended by the manufacturer. In brief a NO2— ion standard curve was prepared in culture media of the same composition to that used for the cell culture study. The concentration range of the standard curve was from 1.5 µM to 100 µM. Equal volumes (50 μL) of standards and unknown samples were added to clear 96 well plates in duplicate. Then 50 μL of sulfanilamide solution was added to each well and the plate was covered and incubated in the dark for 10 min. After the incubation period 50 μL of N-1-napthylethylenediamine dihydrochloride solution was added to each well and the plate was incubated in dark for a further 10 min. After this incubation, the plate was read at 550 nm on a SPECTRAmax PLUS plate reader and the absorbances were used to generate a NO2— standard curve and the NO2— ion levels of the unknown samples are determined using SoftMax Pro V5, Molecular Devices.
Most neurons are highly vulnerable to RNS and ROS. Nitric oxide (NO) is one of RNSs, which is very short lived and cannot be readily measured. However, nitrite is a stable end product of nitric oxide metabolism. Therefore, nitrite acts as a surrogate measure of NO. The Griess Reagent System (Promega Corporation, Madison, WI) can be applied to measure nitrite levels in culture media following the manufacturer's protocol, and this system was used in the present study as it is a more sensitive assay compared to quantifying actions on TNF-α by ELISA assay. […] This challenge induces high level of TNF-α protein accompanied by a robust generation of nitrite.
(§1) Cells were propagated as described by ATCC guidelines.

TNF-α = experiment: LPS-induced TNF-α production in RAW 264.7 cells (ELISA); assay type: cell-based, mouse; details: for TNF-α % Δ: LPS-challenged RAW 264.7 cells, percentage of vehicle control value (control = 100%), mean ± S.E.M., n = 3; for TNF-a, % Change versus Control (± s.e.m.): 10 uM, LPS-activated RAW 264.7 cells
Method: Enzyme-linked immunosorbent assay for TNF-α protein: Media TNF-α levels were measured by use of the Biolegend ELISA MAX Set Delux ELISA (#430904). The protocol used was that recommended by the manufacturer. In brief, a day prior to performing the assay, a 96 well plate was coated with a capture antibody directed against TNF-α. The following day the assay plate was washed and blocked with the kit blocking agent for 1 h while being mixed on a plate shaker at 200 rpm (all incubations were mixed at 200 rpm unless stated otherwise). A TNF-α protein standard curve was prepared in the assay diluent following the kit instructions and unknown media samples were likewise diluted in the same assay diluent. After blocking, the plate was washed and then both the standards and unknown media samples were added to the plate in duplicate. The standards and unknown samples were incubated for 2 h. After the incubation, the plate was washed and then the biotin labeled detection antibody was added to each well and incubated for a further 1 h. After this incubation, the avidin-HRP conjugate complex was added to each well and incubated for 30 min. The plate was washed and the chromogenic substrate 3,3′,5,5′-tetramethylbenzidine solution was added to each well. At this point the plate was covered and incubated in the dark for 15 min, with no mixing. After 15 min the chromogenic reaction was stopped by the addition of 2 N H2SO4 and the absorbance was read at 450 nm and for background subtractions at 570 nm, on a SPECTRAmax PLUS plate reader. The absorbances were used to generate a TNF-α a protein standard curve and the protein levels in the unknown samples were determined using SoftMax Pro V5, Molecular Devices.
as §1

RAW 264.7 cells = experiment: Cell viability of drug treated RAW 264.7 cells (CellTiter 96 AQueous One, MTS); details: 10 uM; LPS-activated RAW 264.7 cells

| Structure (SMILES) | Nitrite, % Change versus Control (± s.e.m.) [1] [%] | TNF-a, % Change versus Control (± s.e.m.) (TNF-α) [%] | Viability, % Change versus Control (± s.e.m.) (RAW 264.7 cells) [%] | further results |
| --- | --- | --- | --- | --- |
| O=C1c2c(F)ccc(F)c2C(=O)N1C1CC2CCC1C2 (stereo not drawn) [Compound 21, 2-Exo-(bicyclo[2.2.1]heptan-2-yl)-4,7-difluoroisoindoline-1,3-dione] | – | – | – | nitrite level, % of vehicle control ([1]; 1 μM): 98 ± 7%; nitrite level, % of vehicle control ([1]; 10 μM): 127 ± 2%; nitrite level, % of vehicle control ([1]; 30 μM): 83 ± 10%; TNF-α % Δ (TNF-α; 1 μM): 90 ± 1%; TNF-α % Δ (TNF-α; 10 μM): 90 ± 1% |
| O=C1c2c(F)ccc(F)c2C(=O)N1C1CC2CCC1C2 (stereo not drawn) [Compound 22, 2-Endo-(bicyclo[2.2.1]heptan-2-yl)-4,7-difluoroisoindoline-1,3-dione] | – | – | – | nitrite level, % of vehicle control ([1]; 1 μM): 103 ± 5%; nitrite level, % of vehicle control ([1]; 10 μM): 104 ± 2%; nitrite level, % of vehicle control ([1]; 30 μM): 50 ± 3%; TNF-α % Δ (TNF-α; 1 μM): 102 ± 5%; TNF-α % Δ (TNF-α; 10 μM): 87 ± 5% |
| O=C1NC(=S)CCC1N1C(=O)c2c(F)ccc([N+](=O)[O-])c2C1=O (stereo not drawn) [Compound 24, 4-fluoro-7-nitro-2-(2-oxo-6-thioxopiperidin-3-yl) isoindoline-1,3-dione] | 4.7 ± 1.0 | 51.3 ± 3.8 | – | – |
| CC(C)Nc1ccc(F)c2c1C(=O)N(C1CCC(=O)NC1=O)C2=O (stereo not drawn) [Compound 25, 2-(2,6-dioxopiperidin-3-yl)-4-fluoro-7-(isopropylamino) isoindoline-1,3-dione] | 110.1 ± 4.4 | 87.1 ± 3.4 | 99.9 ± 0.4 | – |
| Nc1ccc(F)c2c1C(=O)N(C1CCC(=O)NC1=O)C2=O (stereo not drawn) [Compound 26, 4-amino-2-(2,6-dioxopiperidin-3-yl)-7-fluoroisoindoline-1,3-dione] | 90.3 ± 3.7 | – | 100.9 ± 1.1 | – |
| CC(C)Nc1ccc(F)c2c1C(=O)N(C1CCC(=S)NC1=O)C2=O (stereo not drawn) [Compound 27, 4-fluoro-7-(isopropylamino)-2-(2-oxo-6-thioxopiperidin-3-yl) isoindoline-1,3-dione] | 74.8 ± 1.2 | 94.4 ± 2.8 | 112.3 ± 1.7 | – |
| Nc1ccc(F)c2c1C(=O)N(C1CCC(=S)NC1=O)C2=O (stereo not drawn) [Compound 29, 4-amino-7-fluoro-2-(2-oxo-6-thioxopiperidin-3-yl) isoindoline-1,3-dione] | 59.0 ± 1.6 | – | 112.4 ± 2.9 | – |
| Nc1c(F)ccc2c1C(=O)N(C1CCC(=O)NC1=O)C2=O (stereo not drawn) [Compound 31, 4-amino-2-(2,6-dioxopiperidin-3-yl)-5-fluoroisoindoline-1,3-dione] | – | – | – | nitrite levels (in words) [1]: surpassed by counterparts 3′ and 26 |
| Nc1c(F)ccc2c1C(=S)N(C1CCC(=S)NC1=O)C2=O (stereo not drawn) [Compound 32, 4-amino-5-fluoro-2-(2-oxo-6-thioxopiperidin-3-yl)-3-thioxoisoindolin-1-one] | – | – | – | nitrite levels (in words) [1]: modest efficacy |
